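Step 1: Grow cells in 96-well plates. Step 2: Expose to compound for 48 hours at 5 concentrations. Step 3: Interpolate endpoints linearly; if unreached, use highest concentration. GI50 marks 50% less growth. TGI: concentration producing complete growth inhibition.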
How the values were obtained:
Assay in all cases: NCI tumour cell line growth inhibition, 48 h
[1] = tested on: LXFL 529 NSCLC
[2] = tested on: RXF-631 renal
[3] = tested on: PC-3 prostate
[4] = tested on: DU-145 prostate
[5] = tested on: HS 578T breast
[6] = tested on: SN12K1 renal
[7] = tested on: P388/ADR leukemia

Q: What does the source list for `O=Cc1ccc(CCl)cc1`?
A: TGI [1]: 31.4 µM; TGI [2]: 14.7 µM

Q: For `COC(=O)C1=C(OC(=O)/C=C/c2ccc(Cl)cc2)C(C(=O)OC)[C@@]2(O)[C@@H](C(=O)OC)[C@H](C)C[C@@H]1[C@@H]2C(=O)OC` (some centres not stated), which TGI [3] is on record?
A: Its TGI is 69 µM.

Q: What about the TGI [4] of the same compound?
A: The TGI was greater than 100 µM.

Q: And the TGI [5]?
A: Its TGI is 15.5 µM.

Q: `COC1(O)c2cccc(Cl)c2C(=O)N1C1(C(N)=O)CCCCC1` (configuration not stated) was tested. Which TGI [6] did it give?
A: Its TGI is greater than 100 µM.

Q: What about the TGI [7] of the same compound?
A: The TGI was greater than 100 µM.

Q: `CSc1nc2c(ncn2C2OCC(O)C(O)C2O)c(=O)n1C` (configuration not stated) was tested. Which TGI [6] did it give?
A: Its TGI is greater than 100 µM.

Q: And the TGI [7]?
A: Its TGI is greater than 100 µM.

Q: `COc1cc2c(cc1OC)C(=O)/C(=C/c1cc(OC)c(OC)c(OC)c1)C2` was tested. Which TGI [3] did it give?
A: The TGI was greater than 100 µM.

Q: And the TGI [4]?
A: The TGI was greater than 100 µM.

Q: What about the TGI [5] of the same compound?
A: Its TGI is greater than 100 µM.

Q: What does the source list for `CN1CCN(Cc2ccc(NC(=O)c3cccc(C#Cc4cnc(N)c5ncccc45)c3F)cc2C(F)(F)F)CC1`?
A: GI50 [3]: 2.02 µM; TGI [3]: 9.56 µM; GI50 [4]: 0.614 µM; TGI [4]: 1.41 µM; GI50 [5]: 1.29 µM; TGI [5]: 8.66 µM

Q: `CC(=O)NC(Cc1ccsc1)C(=O)O` (configuration not stated) was tested. Which TGI [6] did it give?
A: Its TGI is greater than 100 µM.

Q: What about the TGI [7] of the same compound?
A: Its TGI is greater than 100 µM.

Q: For `COc1cccc(NC(=O)C(=O)C(C(=O)c2ccccc2F)C2OC(=O)c3ccccc32)c1` (configuration not stated), which TGI [1] is on record?
A: Its TGI is greater than 100 µM.

Q: Which TGI [6] does the source give for `COC(=O)C(C/C=C(\C)c1ccc(Cl)cc1)C(C)=O` (configuration not stated) here?
A: The TGI was greater than 61.7 µM.

Q: And the TGI [7]?
A: The TGI was greater than 76.5 µM.

Q: How did the TGI [3] turn out when `COc1ccc2[nH]c3c(C)c4ccnc(NCCCN(C)CCCNc5ccc6ncn7c8ccccc8c(=O)c5c67)c4c(C)c3c2c1` was run?
A: The TGI was 4.21 µM.

Q: And the TGI [4]?
A: Its TGI is 4.14 µM.

Q: What about the TGI [5] of the same compound?
A: The TGI was 25 µM.

Q: With `O=C(O)C12CCCCC1CCCC2` (configuration not stated) as the compound, how does the TGI [1] read?
A: The TGI was greater than 100 µM.

— PubChem BioAssay (NCI)
